According to patent publication US20100267792A1, “Topical Compositions Containing Desthiobiotin and its Derivatives and a Method of Treating Skin” (AVON PRODUCTS, INC., priority 2007, published 2010):

How the values were obtained:
[1] = tested on: LOXL1 regulatory elements (promoter region of the LOXL1 gene); test: LOXL1 promoter luciferase-reporter assay; assay type: cell-based; settings: 0.001% DL-Desthiobiotin, 24 h, human fibrosarcoma line HTI080, LOXL1/pGL3 vector, triplicate tests, p<0.05 compared to vehicle control
Text: Vector construction, transfection and expression: The promoter region of the LOXL1 gene was isolated and cloned into the pGL3 Luciferase reporter plasmid (Promega) by standard methods known in the art and according to manufacturer's instructions. The LOXL1/pGL3 vector and the control vector pRL-NULL (Promega), containing no regulatory elements, were contransfected into the human fibrosarcoma line HTI080 using LipofectAMINE™ LTX Reagent (Invitrogen) according to manufacturer's directions. Transfected cells were allowed to recover for 24 h. The culture medium was then replaced with fresh medium containing various concentrations of DL-Desthiobiotin, and the transfected cells cultured for an additional 24 h. The cultures were subsequently washed with PBS and exposed to 100 microlit cell lysis buffer/25 cm^2 culture area and gently shaken at room temperature for 30 min. The culture flasks containing the cell lysate were then immediately placed at −80 °C. Determination of reporter activity: The activity of the reporter gene, firefly luciferase, was determined according to the manufacturer's instructions (Dual-Luciferase® Reporter Assay System, Promega). Briefly, the activity of the reporter gene is determined relative to that of a control vector encoding a second luciferase gene, that from Renilla reniformis. […]

Fibrillin-1 mRNA = test: Fibrillin-1 gene expression by quantitative RT-PCR in fibroblasts; assay type: cell-based; settings: 0.001% DL-Desthiobiotin, 48 h, normal human dermal fibroblasts, QPCR, compared to solvent control, p<0.05
Experimental: Cell Treatment: Normal human dermal fibroblasts were plated at 10^6 cells/100 mm tissue culture plates in 10 mls of standard growth medium and incubated at 37° C. and 10% CO2. Approximately 24 hours later, cells were dosed with test actives and solvent controls diluted in fresh growth medium and incubated for 48 hours at 37° C. Following 48-hour incubation, cell medium was removed, and 1 ml of TRIzol® reagent was added to lyse the cells in each plate. Cells from each plate were scraped, passed several times through a pipette, and collected into 1.5 ml centrifuge tubes. The cell lysates were incubated for 5 minutes at 15 to 30° C. to permit the complete dissociation of nucleoprotein complexes, and then stored at −80° C. for RNA isolation. RNA Isolation and RT PCR: RNA was isolated using standard procedures and was dissolved in RNase-free water and stored at −80° C. The concentration of total RNA was determined by using Agilent 2100 Bioanalyzer. […] Reverse Transcriptase (RT) reactions were conducted following the manufacturer's instructions provided by Applied Biosystems, Calif. After the RT step, the reactions were stored at −20° C. for QPCR analysis. QPCR was conducted in a total volume of 20 μl. Applied Biosystems (AB) Universal PCR master mix was used. […]

Compound: CC1NC(=O)NC1CCCCCC(=O)O (racemic) [DL-Desthiobiotin]
- increase in expression of the reporter gene [1]: 90%
- increase in Fibrillin-1 gene expression (Fibrillin-1 mRNA): 47.55%
